# Laboratory results taken from PubChem BioAssay (NCI).
#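 All cell lines were grown in 96-well plates and treated with compound for 48 hours. The concentration for 50% growth inhibition is given as GI50. TGI is the concentration that stops growth completely.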
# Assays:
# Experiment in all cases: NCI-60 cell line screen, 48 h
# [1] = tested on: CAKI-1 renal
# [2] = tested on: OVCAR-8 ovarian
# [3] = tested on: OVCAR-4 ovarian
# [4] = tested on: RXF 393 renal
# [5] = tested on: M14 melanoma
# [6] = tested on: SW-620 colon
# [7] = tested on: MALME-3M melanoma
# [8] = tested on: HOP-62 NSCLC
# [9] = tested on: SR leukemia
# [10] = tested on: UACC-62 melanoma
# [11] = tested on: HT29 colon
# [12] = tested on: SK-MEL-2 melanoma
# [13] = tested on: IGROV1 ovarian
# [14] = tested on: SK-OV-3 ovarian
# [15] = tested on: NCI-H226 lung
# [16] = tested on: SN12C renal
# [17] = tested on: UACC-257 melanoma
# [18] = tested on: SF-539 CNS
# [19] = tested on: HL-60(TB) leukemia
# [20] = tested on: HOP-92 NSCLC
# [21] = tested on: HCT-15 colon
# [22] = tested on: A498 renal
# [23] = tested on: RPMI-8226 leukemia
# [24] = tested on: T-47D breast
# [25] = tested on: NCI-H23 lung
# [26] = tested on: ACHN renal
# [27] = tested on: K-562 leukemia
structure (smiles),measurement,setting,value
C=C1CC[C@@H]2[C@]3(C)COC(c4cn(-c5ccccc5)nc4-c4cccc([N+](=O)[O-])c4)O[C@@H]3CC[C@@]2(C)[C@@H]1C/C=C1/C(=O)OC[C@H]1O (some centres undefined),GI50,[1],2.81 µM
same,TGI,[1],> 100 µM
same,GI50,[2],1.9 µM
same,TGI,[2],5.04 µM
same,GI50,[3],4.05 µM
same,TGI,[3],> 100 µM
same,GI50,[4],1.62 µM
same,TGI,[4],3.2 µM
same,GI50,[5],2.08 µM
same,TGI,[5],4.52 µM
same,GI50,[6],2.21 µM
same,TGI,[6],5.13 µM
same,GI50,[7],1.78 µM
same,TGI,[7],3.55 µM
same,GI50,[8],3.15 µM
same,TGI,[8],12.4 µM
same,GI50,[9],3.46 µM
same,TGI,[9],> 100 µM
same,GI50,[10],1.69 µM
same,TGI,[10],3.46 µM
same,GI50,[11],1.82 µM
same,TGI,[11],4.26 µM
same,GI50,[12],1.78 µM
same,TGI,[12],3.51 µM
same,GI50,[13],2.08 µM
same,TGI,[13],4.27 µM
same,GI50,[14],29.8 µM
same,TGI,[14],> 100 µM
same,GI50,[15],2.38 µM
same,TGI,[15],6.59 µM
same,GI50,[16],2.93 µM
same,TGI,[16],10.3 µM
same,GI50,[17],1.8 µM
same,TGI,[17],3.68 µM
same,GI50,[18],1.74 µM
same,TGI,[18],3.18 µM
same,GI50,[19],1.73 µM
same,TGI,[19],> 100 µM
same,GI50,[20],1.86 µM
same,TGI,[20],3.64 µM
same,GI50,[21],1.74 µM
same,TGI,[21],3.58 µM
same,GI50,[22],18.9 µM
same,TGI,[22],45.4 µM
same,GI50,[23],2.45 µM
same,TGI,[23],> 100 µM
same,GI50,[24],1.76 µM
same,TGI,[24],5.02 µM
same,GI50,[25],1.83 µM
same,TGI,[25],3.55 µM
same,GI50,[26],1.89 µM
same,TGI,[26],3.62 µM
same,GI50,[27],2.16 µM
same,TGI,[27],> 100 µM
